From patent publication US20230146096A1, “USE OF VIDOFLUDIMUS FOR THE TREATMENT OF CORONAVIRUS INFECTIONS” (INSERM (Institut National de la Santé et de la Recherche …, priority 2020, published 2023) come the findings set out here.

Each structure is given as a SMILES string. Where two headings read alike, the source gives them in different places.

This experiment concerns SARS-CoV-2 strain BavPat1. Put plainly: Determination of EC50 and EC90: inhibition of SARS-CoV-2 viral RNA replication in Vero E6 cells (RT-qPCR). It is filed as cell-based. The following applies: for EC50: Severe acute respiratory syndrome coronavirus 2, Vero C1008, 48 h, read-out: EC50 (compound concentration required to inhibit viral RNA replication by 50%). In general terms: Quantitative PCR measures a nucleic acid by following its amplification.

Consider `COc1cccc(-c2ccc(NC(=O)C3=C(C(=O)O)CCC3)c(F)c2)c1` [Vidofludimus, 2-[[2-fluoro-4-(3-methoxyphenyl)phenyl]carbamoyl]cyclopentene-1-carboxylic acid], for which the EC50 (Vero E6 cells, MOI 0.002, 2 days at 37° C., viral RNA in supernatant, logarithmic interpolation) came out at 23.1 µM. Besides, the “effect on replication of SARS-CoV-2” value (Vero E6 cells, two days of culture) is on record as “can repress the replication of SARS-CoV-2 in a significant manner”. On to `CCC(CC)COC(=O)[C@H](C)N[P@](=O)(OC[C@H]1O[C@@](C#N)(c2ccc3c(N)ncnn23)[C@H](O)[C@@H]1O)Oc1ccccc1` [remdesivir], for which the EC50 amounted to 6.65 µM.
